Results on 63 compounds are retold here after US8338597B2, “Pyridones useful as inhibitors of kinases” (Vertex Pharmaceuticals Incorporated, priority 2004, dated 2012).

This assay concerns the target T1, Itk (Homo sapiens, UniProt Q08881).
T1 sequence (Q08881 1-620): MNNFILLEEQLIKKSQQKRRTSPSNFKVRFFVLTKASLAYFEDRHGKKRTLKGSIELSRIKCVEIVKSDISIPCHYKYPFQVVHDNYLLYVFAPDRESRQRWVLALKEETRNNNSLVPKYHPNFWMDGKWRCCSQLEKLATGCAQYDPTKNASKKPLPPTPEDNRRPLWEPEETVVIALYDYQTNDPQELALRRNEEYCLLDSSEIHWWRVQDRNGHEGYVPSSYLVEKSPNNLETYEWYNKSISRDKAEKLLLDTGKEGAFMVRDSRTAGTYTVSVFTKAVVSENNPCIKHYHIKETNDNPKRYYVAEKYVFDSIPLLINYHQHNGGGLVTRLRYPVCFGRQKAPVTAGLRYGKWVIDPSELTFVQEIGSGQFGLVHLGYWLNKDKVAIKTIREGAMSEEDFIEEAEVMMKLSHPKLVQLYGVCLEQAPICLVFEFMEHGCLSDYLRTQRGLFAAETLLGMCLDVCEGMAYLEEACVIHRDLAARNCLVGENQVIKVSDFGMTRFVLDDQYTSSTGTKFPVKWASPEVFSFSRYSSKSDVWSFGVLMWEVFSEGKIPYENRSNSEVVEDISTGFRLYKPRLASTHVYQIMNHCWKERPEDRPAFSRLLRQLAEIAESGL
Put plainly: ITK inhibition assay, radioactive-phosphate incorporation. Particulars: [γ-33P]ATP, SAM68 peptide, 25° C. The format is biochemical. The protocol: Assays were carried out in a mixture of 20 mM MOPS (pH 7.0), 10 mM MgCl2, 0.1% BSA and 1 mM DTT. […] Assays were carried out at 25° C. in the presence of 50 nM Itk. An assay stock buffer solution was prepared containing all of the reagents listed above, with the exception of ATP and the test compound of interest.
The reaction was stopped after 10 minutes by the addition of […] 0.2M phosphoric acid+0.01% TWEEN 20. A multiscreen phosphocellulose filter 96-well plate (Millipore, Cat no. MAPHN0B50) was pretreated with 100 μL 0.2M phosphoric acid+0.01% TWEEN 20 prior to the addition of […] of the stopped assay mixture. The plate was washed with 4×200 μL 0.2M phosphoric acid+0.01% TWEEN 20.
Ki(app) data were calculated from non-linear regression analysis of the initial rate data using the Prism software package (GraphPad Prism version 3.0cx for Macintosh, GraphPad Software, San Diego Calif., USA).

The term Ki denotes a measure of affinity in units of concentration, obtained from inhibition or displacement. Take `O=C(Nc1cc(-c2ccncc2)c[nH]c1=O)c1ccc(Br)cc1` [Compound I-20, 4-Bromo-N-(1,2-dihydro-2-oxo-5-(pyridin-4-yl)pyridin-3-yl)benzamide]: the Ki lay within 100 to 1000 nM. Take `CC(C)Oc1ccc(C(=O)Nc2cc(-c3ccncc3)c[nH]c2=O)cc1` [Compound I-21]: the inhibitory constant (Ki) was in the range of 100 to 1000 nM. Regarding `O=C(Nc1cc(-c2ccncc2)c[nH]c1=O)c1ccc(Oc2ccccc2)cc1` [Compound I-22], the Ki fell in the range of 100 to 1000 nM.

For `O=C(Nc1cc(-c2ccncc2)c[nH]c1=O)c1ccc(Cl)cc1` [Compound I-27], the Ki was in the range of 100 to 1000 nM. On to `CN(C)c1ccc(C(=O)Nc2cc(-c3ccncc3)c[nH]c2=O)cc1` [Compound I-45], for which the inhibitory constant (Ki) was 100 to 1000 nM. On to `O=C(Nc1cc(-c2ccncc2)c[nH]c1=O)c1ccc(OCc2ccccc2)cc1` [Compound I-46], for which the Ki fell in the range of 100 to 1000 nM. On to `O=C(Nc1cc(-c2ccncc2)c[nH]c1=O)c1ccc(O)cc1` [Compound I-47], for which the inhibitory constant (Ki) fell in the range of 100 to 1000 nM. Regarding `O=C(Nc1cc(-c2ccncc2)c[nH]c1=O)c1ccc(N2CCC(O)CC2)cc1` [Compound I-72], the Ki lay within 100 to 1000 nM. Regarding `O=C(Nc1cc(-c2ccncc2)c[nH]c1=O)c1ccc(N2CCOCC2)cc1` [Compound I-73], the Ki fell in the range of 100 to 1000 nM. For `O=C(Nc1cc(-c2ccncc2)c[nH]c1=O)c1ccc(N2CCC(N3CCCC3)CC2)cc1` [Compound I-75], the inhibitory constant (Ki) is 100 to 1000 nM. As for `COCCCN1CCN(c2ccc(C(=O)Nc3cc(-c4ccncc4)c[nH]c3=O)cc2)CC1` [Compound I-77], the Ki is below 100 nM.

As to `O=C(Nc1cc(-c2ccncc2)c[nH]c1=O)c1ccc(N2CCN(CCOCCO)CC2)cc1` [Compound I-81], the Ki is below 100 nM. `CNCCCN(C)Cc1ccc(C(=O)Nc2cc(-c3ccncc3)c[nH]c2=O)cc1` [Compound I-85]: the Ki was in the range of 100 to 1000 nM. As for `CNCCNc1nccc(-c2c[nH]c(=O)c(NC(=O)c3ccc(C(C)(C)C)cc3)c2)n1` [II-20], the inhibition constant (Ki) was below 100 nM. Regarding `CN(C)c1nccc(-c2c[nH]c(=O)c(NC(=O)c3ccc(C(C)(C)C)cc3)c2)n1` [II-21], the inhibition constant (Ki) was 100 to 1000 nM.

For `CCNc1nccc(-c2c[nH]c(=O)c(NC(=O)c3ccc(C(C)(C)C)cc3)c2)n1` [II-22], the inhibition constant Ki was below 100 nM. On to `CC(C)Nc1nccc(-c2c[nH]c(=O)c(NC(=O)c3ccc(C(C)(C)C)cc3)c2)n1` [II-23], for which the Ki was below 100 nM.

Regarding `CC(C)(C)c1ccc(C(=O)Nc2cc(-c3cccc(NC4CCNCC4)n3)c[nH]c2=O)cc1` [II-32], the Ki lay in the range of 100 to 1000 nM. As for `CC(C)(C)c1ccc(C(=O)Nc2cc(-c3ccncn3)c[nH]c2=O)cc1` [II-34], the inhibition constant Ki is 100 to 1000 nM.

As to `CC(C)(C)c1ccc(C(=O)Nc2cc(-c3cc(N[C@@H]4CCNC4)ncn3)c[nH]c2=O)cc1` [II-39], the inhibition constant (Ki) was in the range of 100 to 1000 nM. In the case of `O=C(Nc1cc(-c2cc(N[C@@H]3CCNC3)ncn2)c[nH]c1=O)c1ccc(N2CCCCC2)cc1` [II-45], the inhibition constant (Ki) is 100 to 1000 nM.

On to `CSc1nccc(-c2c[nH]c(=O)c(NC(=O)c3ccc(N4CCCCC4)cc3)c2)n1` [II-52], for which the inhibitory constant (Ki) lay in the range of 100 to 1000 nM. Turning to `CNc1ccnc(-c2c[nH]c(=O)c(NC(=O)c3ccc(N4CCCCC4)cc3)c2)n1` [II-56], the inhibition constant (Ki) is 100 to 1000 nM. To `CCOc1nccc(-c2c[nH]c(=O)c(NC(=O)c3ccc(N4CCCCC4)cc3)c2)n1` [II-57] belongs 100 to 1000 nM.

Take `O=C(Nc1cc(-c2ccnc(NCCO)n2)c[nH]c1=O)c1ccc(N2CCCCC2)cc1` [II-59]: the Ki was in the range of 100 to 1000 nM. In the case of `CNCCNc1cccc(-c2c[nH]c(=O)c(NC(=O)c3ccc(N4CCCCC4)cc3)c2)n1` [II-60], the inhibition constant Ki is 100 to 1000 nM. Consider `CNc1ncc(C)c(-c2c[nH]c(=O)c(NC(=O)c3ccc(C(C)(C)C)cc3)c2)n1` [II-62], for which the inhibitory constant (Ki) lay within 100 to 1000 nM. On to `CNc1nccc(-c2c[nH]c(=O)c(NC(=O)c3ccccc3)c2)n1` [II-64], for which the Ki was below 100 nM. Consider `CCc1cc(-c2c[nH]c(=O)c(NC(=O)c3ccc(N4CCCCC4)cc3)c2)nc(NC)n1` [II-66], for which the Ki was below 100 nM. Then `CNc1cccc(-c2c[nH]c(=O)c(NC(=O)c3ccc(N4CCCCC4)cc3)c2)c1` [II-69], with 100 to 1000 nM. On to `O=C(Nc1cc(-c2cccc(NCCO)n2)c[nH]c1=O)c1ccc(N2CCCCC2)cc1` [II-70], for which the Ki fell in the range of 100 to 1000 nM. As for `COCCNc1cccc(-c2c[nH]c(=O)c(NC(=O)c3ccc(N4CCCCC4)cc3)c2)n1` [II-71], the inhibition constant Ki was in the range of 100 to 1000 nM. `CNCCOc1nccc(-c2c[nH]c(=O)c(NC(=O)c3ccc(N4CCCCC4)cc3)c2)n1` [II-76]: the Ki fell in the range of 100 to 1000 nM. Regarding `CNCCN(C)c1cccc(-c2c[nH]c(=O)c(NC(=O)c3ccc(N4CCCCC4)cc3)c2)n1` [II-95], the inhibition constant (Ki) was 100 to 1000 nM. Regarding `CNc1nccc(-c2c[nH]c(=O)c(NC(=O)c3ccc(OCc4ccccc4)cc3)c2)n1` [II-97], the inhibitory constant (Ki) was below 100 nM. For the compound `CNc1nccc(-c2c[nH]c(=O)c(NC(=O)c3ccc(Cc4ccccc4)cc3)c2)n1` [II-98], the inhibition constant (Ki) is 100 to 1000 nM. For the compound `N#Cc1cncc(-c2c[nH]c(=O)c(NC(=O)c3ccc(N4CCCCC4)cc3)c2)c1` [II-99], the Ki lay within 100 to 1000 nM. Then `O=C(Nc1cc(-c2ccncc2)c[nH]c1=O)c1ccc(N2CCNCC2)nc1` [II-100], with 100 to 1000 nM; and `CC(=O)NCCNc1cccc(-c2c[nH]c(=O)c(NC(=O)c3ccc(N4CCCCC4)cc3)c2)n1` [II-101], with 100 to 1000 nM; and `O=C(Nc1cc(-c2cccc(NCCN3CCCC3)n2)c[nH]c1=O)c1ccc(N2CCCCC2)cc1` [II-104], with 100 to 1000 nM. For `O=C(Nc1cc(-c2cccc(NCC3CCNCC3)n2)c[nH]c1=O)c1ccc(N2CCCCC2)cc1` [II-105], the Ki fell in the range of 100 to 1000 nM. As for `CNc1nccc(-c2c[nH]c(=O)c(NC(=O)c3ccc(NCCCN)cc3)c2)n1` [II-107], the inhibition constant (Ki) is below 100 nM. `CC(C)[C@@H](CO)Nc1cccc(-c2c[nH]c(=O)c(NC(=O)c3ccc(N4CCCCC4)cc3)c2)n1` [II-108]: the Ki fell in the range of 100 to 1000 nM. In the case of `CCN1CCCC1CNc1cccc(-c2c[nH]c(=O)c(NC(=O)c3ccc(N4CCCCC4)cc3)c2)n1` (stereo not drawn) [II-120], the Ki lay within 100 to 1000 nM.

Regarding `O=C(Nc1cc(-c2cccc(CO)n2)c[nH]c1=O)c1ccc(N2CCCCC2)cc1` [II-121], the inhibition constant Ki was 100 to 1000 nM. For the compound `CNc1cc(-c2c[nH]c(=O)c(NC(=O)c3ccc(N4CCCCC4)cc3)c2)nc(NC)n1` [II-123], the Ki fell in the range of 100 to 1000 nM. As for `CNC(=O)c1cccc(-c2c[nH]c(=O)c(NC(=O)c3ccc(N4CCCCC4)cc3)c2)n1` [II-124], the inhibition constant Ki lay within 100 to 1000 nM. Consider `CNc1cc(-c2c[nH]c(=O)c(NC(=O)c3ccc(N4CCNCC4)cc3)c2)ncn1` [II-126], for which the Ki was below 100 nM. On to `C[C@H](CN)Nc1cccc(-c2c[nH]c(=O)c(NC(=O)c3ccc(N4CCCCC4)cc3)c2)n1` [II-129], for which the Ki was below 100 nM.

For the compound `CNc1nc(C)cc(-c2c[nH]c(=O)c(NC(=O)c3ccc(N4CCCCC4)cc3)c2)n1` [II-130], the Ki is below 100 nM. For the compound `CC(C)[C@@H](CO)Nc1cncc(-c2c[nH]c(=O)c(NC(=O)c3ccc(N4CCNCC4)cc3)c2)n1` [II-131], the inhibition constant Ki is below 100 nM. `CC(C)[C@H](CO)Nc1cccc(-c2c[nH]c(=O)c(NC(=O)c3ccc(N4CCCCC4)cc3)c2)n1` [II-132]: the inhibitory constant (Ki) lay within 100 to 1000 nM. For the compound `CC(C)(C)C(CO)Nc1cccc(-c2c[nH]c(=O)c(NC(=O)c3ccc(N4CCCCC4)cc3)c2)n1` (stereo not drawn) [II-133], the inhibition constant (Ki) lay in the range of 100 to 1000 nM. Turning to `CNc1cccc(-c2c[nH]c(=O)c(NC(=O)c3ccc(OCCC4CCNCC4)cc3)c2)n1` [II-134], the Ki was below 100 nM.

On to `CNc1cc(-c2c[nH]c(=O)c(NC(=O)c3ccc(N4C[C@@H](C)N[C@@H](C)C4)cc3)c2)ncn1` [II-135], for which the Ki is below 100 nM.

For the compound `CNc1cc(-c2c[nH]c(=O)c(NC(=O)c3ccc(N4CCC[C@H]4CN4CCCC4)cc3)c2)ncn1` [II-136], the Ki was below 100 nM. With `CNc1cc(-c2c[nH]c(=O)c(NC(=O)c3ccc(C4=CCNCC4)cc3)c2)ncn1` [II-137], the inhibition constant (Ki) was 100 to 1000 nM. For `CNc1cccc(-c2c[nH]c(=O)c(NC(=O)c3ccc(OCCN4CCNCC4)cc3)c2)n1` [II-138], the Ki was below 100 nM.

Regarding `CNc1cncc(-c2c[nH]c(=O)c(NC(=O)c3ccc(N4CCNCC4)cc3)c2)n1` [II-139], the Ki is below 100 nM.

`O=C(Nc1cc(-c2ccccn2)c[nH]c1=O)c1ccc(N2CCCCC2)cc1` [II-140]: the inhibition constant Ki lay within 100 to 1000 nM.

As for `CNc1cc(-c2c[nH]c(=O)c(NC(=O)c3ccc(OCCC4CCNCC4)cc3)c2)ncn1` [II-142], the Ki was below 100 nM.

For the compound `Cn1cncc1-c1c[nH]c(=O)c(NC(=O)c2ccc(N3CCNCC3)cc2)c1` [II-144], the Ki is 100 to 1000 nM.

On to `CNc1cncc(-c2c[nH]c(=O)c(NC(=O)c3ccc(N4CCC[C@H]4CN4CCCC4)cc3)c2)n1` [II-145], for which the Ki is below 100 nM.
